Assays:
[1] = system: artificial skin (human dermal fibroblast collagen gel with human foreskin-derived epidermal keratinocytes); test: Artificial skin culture with additives in the medium, H&E and type IV / type VII collagen immunostaining (Example 1); assay type: cell-based; details: for staining of type IV and type VII collagen: cytokine (1 ng/ml interleukin-1β, 1 ng/ml TGF-α or 100 ng/ml PDGF) combined with 10 μg/ml aprotinin and 10 μM compound A
Experimental: (§1) Collagen gel was obtained by preparing 10 ml of a human dermal fibroblasts (0.3-1×10^5 cell/ml)-suspended collagen solution (using I-AC collagen manufactured by Koken Co., Ltd.) on ice, followed by gelling the collagen in a 60 mm Petri dish at 37° C. The gel was then peeled from the bottom of the dish, the collagen gel was placed on metal, and a glass ring (12 mm inner diameter) was placed over the gel. A 0.4 ml portion of a human foreskin-derived epidermal keratinocyte (1×10^6/ml) suspension (KGM-DMEM (1:1) mixed medium containing 5% fetal bovine serum) was poured into the glass ring while avoiding leakage. The keratinocytes were allowed to adhere in a CO2 incubator overnight, and the ring was removed on the following day. The medium was filled in up to the border of the epidermal layer, and culturing was continued while exposing the epidermal layer to the air, to prepare a multilayered skin model with epidermis having a horny layer.
From the 4th day after seeding the epidermal cells, the medium was replaced with medium containing (1) no compound (−compound A), (2) 10 uM of compound A (+compound A), (3) 10 μM of compound A and 10 μg/ml of aprotinin (+compound A+aprotinin), (4) 10 μM of compound A and 1 ng/ml of interleukin-1β (+compound A+IL-1), (5) 10 μM of compound A, 1 ng/ml of interleukin-1β and 10 μg/ml of aprotinin (+compound A+IL-1+aprotinin), (6) 10 μM of compound A and 1 ng/ml of TFG-α (+compound A+TGFα), (7) 10 μM of compound A, 1 ng/ml of TGF-α and 10 μg/ml aprotinin (+compound A, +TGFα+aprotinin), (8) 10 μM of compound A and 100 ng/ml PDGF (+compound A+PDGF) and (9) 10 μm of compound A, 100 ng/ml PDGF and 10 μg/ml of aprotinin (+compound A+PDGF +aprotinin), and every 2-3 days thereafter, the medium was exchanged with a medium containing the same types and same concentrations of […], extracellular matrix production accelerator (cytokines) and serine protease inhibitor, after which culturing was performed for 2 weeks.
The formed artificial skin was stained with hematoxylin and eosin (H&E) and immunostaining (using anti-type IV collagen antibody and anti-type VII collagen antibody).

[2] = system: artificial skin basement membrane; test: Transmission electron microscopy of basement membrane structure directly under the epidermis of artificial skin (Example 1); assay type: cell-based, human
Experimental: as §1, with “layer. […]” for “layer.”

[3] = cytokine (1 ng/ml interleukin-1β, 1 ng/ml TGF-α or 100 ng/ml PDGF) together with 10 μM compound A

Molecule: COc1ccc(S(=O)(=O)N(Cc2cccnc2)C(C(=O)NO)C(C)C)cc1.Cl (centres unmarked) [compound A, reference compound]
- staining of type VII collagen directly under the basal keratinocytes ([1]; 10 μM compound A alone in medium, 2 weeks culture, versus no-addition control): weak but definite staining of type VII collagen
- basement membrane structure directly under the epidermis (transmission electron microscope) ([2]; 10 μM compound A alone): induced formation of the basement membrane

Molecule: aprotinin
- staining of type VII collagen ([1]; 10 μg/ml aprotinin added in addition to 10 μM compound A, 2 weeks culture): further increased
- basement membrane structure directly under the epidermis (transmission electron microscope) ([2]; 10 μg/ml aprotinin added with 10 μM compound A): increased the electron density and accentuated the continuity of the basement membrane

Molecule: interleukin 1 (IL-1): matrix protein production-increasing cytokine, interleukin-1β
- staining of type IV and type VII collagen [1]: clearly concentrated directly under the basal keratinocytes, giving a sharp stained image
- staining of type VII collagen [1, 3]: particularly accentuated

Molecule: transforming growth factor-α (TGF-α): matrix protein production-increasing cytokine
- staining of type IV and type VII collagen [1]: clearly concentrated directly under the basal keratinocytes, giving a sharp stained image
- staining of type VII collagen [1, 3]: particularly accentuated
